Results published in patent publication US20130281397A1, “TREATMENT OF DISEASES BY EPIGENETIC REGULATION” (RVX Therapeutics Inc., priority 2012, published 2013).

Key:
Brd4 bromodomain 1 = target: T1, Brd4 bromodomain 1 (Homo sapiens, UniProt O60885); test: Inhibition of binding of tetra-acetylated histone H4 and Brd4 bromodomain 1 by TR-FRET; settings: His-tagged bromodomain 200 nM, biotinylated tetra-acetylated histone H4 peptide 25-50 nM, 2 hours at room temperature
T1 construct: made in house; host or cells: E. coli BL21(DE3)

c-myc = test: Inhibition of c-myc expression (mRNA, real-time PCR) in MV4-11 cells; type: cell-based, Human; design: key: Active: Compounds with an IC50 value less than 30 μM were deemed to be active; settings: 3 hours at 37° C., duplex with cyclophilin
Description: MV4-11 cells (2.5×10^4 cells) were plated in 96 well U-bottom plates with test compound or DMSO (0.1%), and incubated for 3 hours at 37° C. Cells were then harvested by centrifugation, lysed, and mRNA was isolated using the mRNA catcher plus kit (Invitrogen). Reverse transcription of the mRNA and duplex amplification of the c-myc and cyclophilin cDNAs were performed using the RNA Ultrasense kit (Invitrogen) and a ViiA7 real-time PCR machine (Applied Biosystems). IC50 values were determined from a dose response curve.

Human AML MV-4-11 cells = test: Inhibition of cell proliferation in human AML MV-4-11 cells; type: cell-based; design: key: Active: Compounds with an IC50 value less than 30 uM were deemed to be active; settings: 72 hours, CellTiter Aqueous One Solution, 30 uM to 0.2 μM
Description: MV4-11 cells: 96-well plates were seeded with 5×10^4 cells per well of exponentially growing human AML MV-4-11 (CRL-9591) cells and immediately treated with two-fold dilutions of test compounds, ranging from 30 uM to 0.2 μM. Triplicate wells were used for each concentration, as well as a media only and three DMSO control wells. The cells and compounds were incubated at 37° C., 5% CO2 for 72 hours before adding 20 μL of the CellTiter Aqueous One Solution (Promega) to each well and incubating at 37° C., 5% CO2 for an additional 3-4 hours. The absorbance was taken at 490 nm in a spectrophotometer and the percentage of proliferation relative to DMSO-treated cells was calculated after correction from the blank well. IC50 were calculated using the GraphPad Prism software.

FRET activity (<50 uM) (Brd4 bromodomain 1) | melting point | SMILES | c-myc activity (<30 uM) (c-myc) | cell proliferation activity (<30 uM) (Human AML MV-4-11 cells)
Active | 253 to 254 °C | COc1cc(OC)c2c(=O)n(C)c(-c3cc(C)c(O)c(C)c3)cc2c1 [Example 4, 3-(4-hydroxy-3,5-dimethylphenyl)-6,8-dimethoxy-2-methylisoquinolin-1(2H)-one] | Active | Active
Active |  | COc1cc(OC)c2c(=O)[nH]c(-c3cc(C)c(O)c(C)c3)nc2c1 [Example 10, 2-(4-hydroxy-3,5-dimethylphenyl)-5,7-dimethoxyquinazolin-4(3H)-one] | Active | Active
Active |  | COc1cc(OC)c2c(=O)[nH]c(-c3cc(C)c(OCCO)c(C)c3)nc2c1 [Example 16, 2-(4-(2-hydroxyethoxy)-3,5-dimethylphenyl)-5,7-dimethoxyquinazolin-4(3H)-one] | Active | 
Active |  | COc1cc(OC)c2c(=O)[nH]c(-c3cc(C)c(OCCN4CCOCC4)c(C)c3)nc2c1 [Example 17, 2-(3,5-dimethyl-4-(2-morpholinoethoxy)phenyl)-5,7-dimethoxyquinazolin-4(3H)-one] |  | Active
Active |  | COc1cc(OC)c2c(=O)[nH]c(-c3ccc(N4CCN(C)CC4)cc3)nc2c1 [Example 38, 5,7-dimethoxy-2-(4-(4-methylpiperazin-1-yl)phenyl)quinazolin-4(3H)-one] | Active | Active
Active | 158 to 161 °C | COc1cc2cc(-c3cc(C)c(O)c(C)c3)[nH]c(=O)c2c(OC)c1CN1CCOCC1 [Example 46, 3-(4-hydroxy-3,5-dimethylphenyl)-6,8-dimethoxy-7-(morpholinomethyl)isoquinolin-1(2H)-one] | Active | Active
Active |  | Cc1cc(-c2nc3ccc(CN4CCOCC4)cc3c(=O)[nH]2)cc(C)c1O [Example 57, 2-(4-hydroxy-3,5-dimethylphenyl)-6-(morpholinomethyl)quinazolin-4(3H)-one] | Active | Active
Active | 270 to 272 °C | COc1cc(OC)c2c(=O)[nH]c(-c3cc(C)c(OCC(=O)O)c(C)c3)nc2c1 [Example 59, 2-(4-(5,7-dimethoxy-4-oxo-3,4-dihydroquinazolin-2-yl)-2,6-dimethylphenoxy)acetic acid] | Inactive | 
Active | 188.5 to 189.1 °C | COc1cc(OC)c2c(=O)nc(-c3cc(C)c(O)c(C)c3)n(C)c2c1 [Example 66, 2-(4-hydroxy-3,5-dimethylphenyl)-5,7-dimethoxy-1-methylquinazolin-4(1H)-one] |  | 
 |  | COc1cc(OC)c2c(=O)[nH]c(-c3cc(C)c(OCCN4CCCC4)c(C)c3)nc2c1 [Example 67, 2-(3,5-dimethyl-4-(2-(pyrrolidin-1-yl)ethoxy)phenyl)-5,7-dimethoxyquinazolin-4(3H)-one] | Active | Active
Inactive | > 300 °C | CC(=O)Nc1ccc2nc(-c3cc(C)c(OCCO)c(C)c3)[nH]c(=O)c2c1 [Example 68, N-(2-(4-(2-hydroxyethoxy)-3,5-dimethylphenyl)-4-oxo-3,4-dihydroquinazolin-6-yl)acetamide] |  | 
Active | 206 to 208 °C | Cc1cc(-c2cc3nc(OC(C)C)cc(OC(C)C)c3c(=O)[nH]2)cc(C)c1O [Example 69, 7-(4-hydroxy-3,5-dimethylphenyl)-2,4-diisopropoxy-1,6-naphthyridin-5(6H)-one] |  | 
Active | 249 to 250.3 °C | COc1cc(OC)c2c(=O)[nH]c(-c3ccc(O)c(CCO)c3)nc2c1 [Example 70, 2-(4-hydroxy-3-(2-hydroxyethyl)phenyl)-5,7-dimethoxyquinazolin-4(3H)-one] |  | 
Inactive | 259.6 to 261.2 °C | Cc1cc(C)c2c(=O)[nH]c(-c3cc(C)c(OCCO)c(C)c3)nc2c1 [Example 71, 2-(4-(2-hydroxyethoxy)-3,5-dimethylphenyl)-5,7-dimethylquinazolin-4(3H)-one] |  | 
Active | 277 to 279 °C | COc1cc(OC)c2c(=O)[nH]c(-c3ccc(N(CCO)CCO)cc3)nc2n1 [Example 72, 2-(4-(bis(2-hydroxyethyl)amino)phenyl)-5,7-dimethoxy-pyrido[2,3-d]pyrimidin-4(3H)one] |  | 
Active | 201 to 202 °C | COCCOc1c(C)cc(-c2nc3cc(OC)cc(OC)c3c(=O)[nH]2)cc1C [Example 73, 5,7-dimethoxy-2-(4-(2-methoxyethoxy)-3,5-dimethylphenyl)quinazolin-4(3H)-one] |  | 
Active | 260.8 to 262.6 °C | Cc1cc(-c2nc3cc(Cl)cc(Cl)c3c(=O)[nH]2)cc(C)c1OCCO [Example 74, 5,7-dichloro-2-(4-(2-hydroxyethoxy)-3,5-dimethylphenyl)quinazolin-4(3H)-one] |  | 
Active | 237 to 239.1 °C | COc1cc2nc(-c3cc(C)c(O)c(C)c3)[nH]c(=O)c2c(OC)c1CN1CCOCC1 [Example 75, 2-(4-hydroxy-3,5-dimethylphenyl)-5,7-dimethoxy-6-(morpholinomethyl)quinazolin-4(3H)-one] | Active | Active
Active |  | COc1cc(OC)c2c(=O)[nH]c(-c3cc(C)c(OCCNS(C)(=O)=O)c(C)c3)nc2c1 [Example 96, N-(2-(4-(5,7-dimethoxy-4-oxo-3,4-dihydroquinazolin-2-yl)-2,6-dimethylphenoxy)ethyl)methanesulfonamide] | Inactive | Active
Active | 275 to 277 °C | COc1cc(OC)c2c(=O)[nH]c(-c3ccc(OCC(=O)O)c(OC)c3)nc2c1 [Example 97, 2-(4-(5,7-dimethoxy-4-oxo-3,4-dihydroquinazolin-2-yl)-2-methoxyphenoxy)acetic acid] |  | 
Inactive | 291.3 to 293 °C | COc1cc(O)c2c(=O)[nH]c(-c3cc(C)c(O)c(C)c3)nc2c1 [Example 98, 5-hydroxy-2-(4-hydroxy-3,5-dimethylphenyl)-7-methoxyquinazolin-4(3H)-one] |  | 
